# Assays:
# [1] = tested on: TNF-α production; test: In vitro pharmacology studies: inhibition of TNF-α production following LPS-stimulation of human PBMC and human whole blood; assay type: cell-based; conditions: compared with thalidomide
# Description: One of the biological effects typically exerted by selective cytokine inhibitory drugs is the reduction of synthesis of TNF-α. Specific selective cytokine inhibitory drugs enhance the degradation of TNF-α mRNA. TNF-α may play a pathological role in macular degeneration.
# In a specific embodiment, the pharmacological properties of 3-(3,4-dimethoxy-phenyl)-3-(1-oxo-1,3-dihydro-isoindol-2-yl)-propionamide are characterized in in vitro studies. Studies examine the effects of the compound on the production of various cytokines. Inhibition of TNF-α production following LPS-stimulation of human PBMC and human whole blood by the compound is investigated in vitro. […] The pharmacological effects of 3-(3,4-dimethoxy-phenyl)-3-(1-oxo-1,3-dihydro-isoindol-2-yl)-propionamide may derive from its action as an inhibitor of the generation of inflammatory cytokines.
# [2] = tested on: patients with macular degeneration; test: Clinical study in patients with macular degeneration, adjuvant to photodynamic therapy with verteporfin; assay type: in vivo, human; conditions: about 20 mg/day as adjuvant to verteporfin photodynamic therapy for 20 weeks
# Description: Selective cytokine inhibitory drugs of the invention are administered in an amount of about 20 to about 1,200 mg per day to patients with macular degeneration. In a specific embodiment, clinical studies are performed with forty patients with macular degeneration, who are divided into two groups. The first group receives conventional treatment for closing the leaking choroidal vessels (characteristic of this disease) by photodynamic therapy with verteporfin. Ophthalmol 1999 (117): 1329-1345. The second group receives the same conventional therapy with verteporfin and (+)-2-[1-(3-ethoxy-4 methoxy-phenyl)-2-methylsulfonylethyl]-4 acetylaminoisoindoline 1,3-dione in an amount of about 20 mg/day as an adjuvant for 20 weeks.
# However, the first group without (+)-2-[1-(3-ethoxy-4 methoxyphenyl)-2-methylsulfonylethyl]-4 acetylaminoisoindoline 1,3-dione experiences progressive reperfusion of the ablated vessels several weeks after treatment. Progressive visual loss follows which requires the photodynamic therapy to be repeated.
# [3] = tested on: laser-induced CNVM; conditions: intravitreal injection, monkeys; cited from earlier work
# [4] = tested on: patients with MD; conditions: intravitreal injection, one-year period, randomized trial; cited from earlier work
# [5] = animal models; cited from earlier work
# [6] = tested on: MD; conditions: cited from earlier work
molecule,measurement,setting,value
"COc1ccc(C(CC(N)=O)N2Cc3ccccc3C2=O)cc1OC (stereo not shown) [3-(3,4-Dimethoxy-phenyl)-3-(1-oxo-1,3-dihydro-isoindol-2-yl)-propionamide]","pharmacological activity profile, potency relative to thalidomide",[1],five to fifty times more potent than thalidomide
"CCOc1cc(C(CS(C)(=O)=O)N2C(=O)c3cccc(NC(C)=O)c3C2=O)ccc1OC (single isomer, unassigned; (+)) [(+)-2-[1-(3-ethoxy-4 methoxyphenyl)-2-methylsulfonylethyl]-4 acetylaminoisoindoline 1,3-dione]",effect on neovascular cascade / duration of effects of photodynamic therapy,[2],neovascular cascade is sufficiently hindered
C[C@]12C=CC(=O)C=C1CC[C@H]1[C@@H]3C[C@@H](O)[C@](O)(C(=O)CO)[C@@]3(C)C[C@H](O)[C@@]12F [triamcinolone],growth of laser-induced CNVM,[3],inhibits the growth of laser-induced CNVM
same,prevention of severe visual loss,[4],fails to prevent severe visual loss
verteporfin,accumulation in tissue,[5],also accumulates in the retina
interferon-α,efficacy at treating MD,"[6]; clinical trial, Arch. Ophthalmol. 115:865-72 (1997)",ineffective at treating MD
same,adverse effects,"[6]; human, in vivo",high rate of adverse effects
